How the values were obtained:
HCV NS5B RNA polymerase = biological target: T1, HCV NS5B RNA polymerase (Hepatitis C virus genotype 1b, UniProt P26663); test: Inhibition of HCV NS5B RNA-dependent RNA polymerase on heteromeric RNA template t500 (filter-binding, radiolabelled NTP); assay type: biochemical; details: test concentration not given (compounds tested up to 100 μM); for % I (ATP), Percent Inhibition of HCV NS5B RNA polymerase: [alpha-32P]-ATP label; for % I (GTP), Percent Inhibition of HCV NS5B RNA polymerase: [alpha-32P]-GTP label
T1 construct: purified hepatitis C NS5B (form with 21 amino acids C-terminally truncated)
Method: This assay can be used to measure the ability of the nucleoside triphosphates of the present invention to inhibit the enzymatic activity of the RNA-dependent RNA polymerase (NS5B) of the hepatitis C virus (HCV) on a heteromeric RNA template.
The following describes assay buffer conditions: (50 μl-total/reaction) • 20 mM Tris, pH 7.5 • 50 μM EDTA • 5 mM DTT • 2 mM MgCl2 • 80 mM KCl • 0.4 U/μl RNAsin (Promega, stock is 40 units/μl) • 0.75 μg t500 (a 500 nt RNA made using T7 runoff transcription with a sequence from the NS2/3 region of the hepatitis C genome) • 1.6 μg purified hepatitis C NS5B (form with 21 amino acids C-terminally truncated) • 1 μM A, C, U, GTP (nucleoside triphosphate mix) • [alpha-^32P]-GTP or [alpha-^32P]-ATP The compounds were tested at various concentrations up to 100 μM final concentration.
An appropriate volume of reaction buffer was made including enzyme and template t500. Nucleoside derivatives of the present invention were pipetted into the wells of a 96-well plate. A mixture of nucleoside triphosphates (NTP's), including the radiolabeled GTP, was made and pipetted into the wells of a 96-well plate. The reaction was initiated by addition of the enzyme-template reaction solution and allowed to proceed at room temperature for 1-2 hours.
The reaction was quenched by addition of 20 μl 0.5 M EDTA, pH 8.0. Blank reactions in which the quench solution is added to the NTPs prior to the addition of the reaction buffer were included.
50 μL of the quenched reaction was spotted onto DE81 filter disks (Whatman) and allowed to dry for 30 minutes. The filters were washed with 0.3 M ammonium formate, pH 8 (150 mL/wash until the cpm in 1 mL wash is less than 100, usually 6 washes). The filters were counted in 5-mL scintillation fluid in a scintillation counter.
The percentage of inhibition is calculated according to the following equation: %Inhibition={1−(cpm in test reaction−cpm in blank)/(cpm in control reaction−cpm in blank)}×100.

wild-type HIV RT = wild-type HIV RT (Human immunodeficiency virus type 1 group M subtype B, UniProt P04585); test: Inhibition of HIV-RT activity (RNA template t500 annealed to DNA primer pD500, [alpha-33P]-dATP incorporation); assay type: biochemical; details: for inhibition at 10 µM: read-out: % I (10 μM), Inhibition of HIV-RT; for inhibition at 100 µM: read-out: % I (100 μM), Inhibition of HIV-RT

T1 sequence (P26663 2420-2989): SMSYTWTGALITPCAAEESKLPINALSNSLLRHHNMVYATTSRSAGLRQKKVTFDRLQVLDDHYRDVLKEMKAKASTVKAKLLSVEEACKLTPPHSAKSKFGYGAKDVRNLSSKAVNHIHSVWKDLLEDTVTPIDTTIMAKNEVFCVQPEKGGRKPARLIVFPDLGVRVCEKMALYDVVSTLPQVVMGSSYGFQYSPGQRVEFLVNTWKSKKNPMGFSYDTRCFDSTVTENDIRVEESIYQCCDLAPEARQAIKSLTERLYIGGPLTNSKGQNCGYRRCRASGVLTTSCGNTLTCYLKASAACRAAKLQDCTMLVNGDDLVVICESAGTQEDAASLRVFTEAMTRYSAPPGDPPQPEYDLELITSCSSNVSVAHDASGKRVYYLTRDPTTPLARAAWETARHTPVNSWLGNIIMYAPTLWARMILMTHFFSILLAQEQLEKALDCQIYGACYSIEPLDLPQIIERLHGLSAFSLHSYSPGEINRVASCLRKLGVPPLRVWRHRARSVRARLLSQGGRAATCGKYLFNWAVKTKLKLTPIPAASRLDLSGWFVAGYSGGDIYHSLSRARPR

Compound	% I (ATP), Percent Inhibition of HCV NS5B RNA polymerase (HCV NS5B RNA polymerase)	% I (GTP), Percent Inhibition of HCV NS5B RNA polymerase (HCV NS5B RNA polymerase)	inhibition at 10 µM (wild-type HIV RT)	inhibition at 100 µM (wild-type HIV RT)
2′-Deoxythymidine-5′-(α-P-(amino triphosphate) [compound 17 of Table 2]	0.1%	−6%		
NCC1COCCOCCOCCOCCO1 (stereo not shown) [compound 11]			5.37%	-17.2%
2′-O-Methyl guanosine-5′-(α-P-(N-butyl)triphosphate) [compound 23 of Table 2]	90%	91%		
NCc1ccc(-c2ccccc2)cc1 [compound 14]			-2.25%	-12.9%
COc1cc(CN)cc(OC)c1 [compound 10]			-6.41%	-11.9%
